The compounds below were run against T1, recombinant human NK3 receptor (Homo sapiens, UniProt P29371) (assay: [3H]SR142801 competition binding assay). Settings: membranes from HEK293 cells transiently expressing recombinant human NK3 receptor; [3H]SR142801 radioligand; 75 min at RT; Ki by Cheng-Prussoff; read-out: Data Ki (hNK-3 receptor affinity).
T1 construct: expressed in transfected cells; host or cells: HEK293 cells (transient expression), membranes
T1 sequence (P29371 1-465): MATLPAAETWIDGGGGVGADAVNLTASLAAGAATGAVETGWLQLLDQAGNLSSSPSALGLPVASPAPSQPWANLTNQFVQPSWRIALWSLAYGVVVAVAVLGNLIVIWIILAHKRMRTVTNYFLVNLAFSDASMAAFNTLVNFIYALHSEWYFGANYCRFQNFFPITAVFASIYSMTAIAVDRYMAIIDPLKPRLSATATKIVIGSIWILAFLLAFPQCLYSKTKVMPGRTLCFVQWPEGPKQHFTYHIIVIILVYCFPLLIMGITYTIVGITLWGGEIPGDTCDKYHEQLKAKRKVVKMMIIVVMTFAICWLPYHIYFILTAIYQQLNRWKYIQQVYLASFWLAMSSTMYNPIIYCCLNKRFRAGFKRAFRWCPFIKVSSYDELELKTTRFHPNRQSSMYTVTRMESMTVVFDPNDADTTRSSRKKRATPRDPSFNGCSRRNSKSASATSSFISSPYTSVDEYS
In short: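 Membranes from HEK293 cells transiently expressing the receptor, 5 μg protein/well, in 50 mM Tris-HCl pH 7.4 with 4 mM MnCl2, 1 μM phosphoramidon, 0.1% BSA; nonspecific binding defined with 10 μM SB222200. Filtration and scintillation counting; IC50 from Hill fit, Ki by Cheng-Prussoff using saturation-derived KD, duplicates.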

| Ki [µM] | Structure (SMILES) |
| --- | --- |
| 0.017 | O=C(c1ccc(-c2ccc(F)cc2)cc1)N1CCC(C(=O)NNc2ccc(F)c(F)c2)(c2ccc(F)cc2)CC1 [Example 191, 1-(4′-Fluoro-biphenyl-4-carbonyl)-4-(4-fluoro-phenyl)-piperidine-4-carboxylic acid N′-(3,4-difluoro-phenyl)-hydrazide] |
| 0.0074 | O=C(c1ccc(-c2ccc(F)cc2)cc1)N1CCC(C(=O)N[C@H](c2cccc(F)c2)C2CC2)(c2ccc(F)cc2)CC1 [Example 193, 1-(4′-Fluoro-biphenyl-4-carbonyl)-4-(4-fluoro-phenyl)-piperidine-4-carboxylci acid [(S)-cyclopropyl-(3-fluoro-phenyl)-methyl]-amide] |
| 0.035 | O=C(c1ccc(-c2ccc(F)cc2)cc1)N1CCC(C(=O)N[C@@H](c2cccc(F)c2)C2CC2)(c2ccc(F)cc2)CC1 [Example 194, 1-(4′-Fluoro-biphenyl-4-carbonyl)-4-(4-fluoro-phenyl)-piperidine-4-carboxylic acid [(R)-cyclopropyl-(3-fluoro-phenyl)-methyl]-amide] |
| 0.015 | N#Cc1ccc(N2CCC(C(=O)N3CCC(C(=O)N[C@H](c4cccc(F)c4)C4CC4)(c4ccc(F)cc4)CC3)CC2)nc1 [Example 195, 1-(5′-Cyano-3,4,5,6-tetrahydro-2H-[1,2′]bipyridinyl-4-carbonyl)-4-(4-fluoro-phenyl)-piperidine-4-carboxylic acid [(S)-cyclopropyl-(3-fluoro-phenyl)-methyl]-amide] |
| 0.0022 | Cc1noc(-c2ccc(C(=O)N3CCC(C(=O)N[C@H](c4cccc(F)c4)C4CC4)(c4ccc(F)cc4)CC3)cc2)n1 [Example 196, 4-(4-Fluoro-phenyl)-1-[4-(3-methyl-[1,2,4]oxadiazol-5-yl)-benzoyl]-piperidine-4-carboxylic acid [(S)-cyclopropyl-(3-fluoro-phenyl)-methyl]-amide] |
| 0.0071 | Cc1nc(-c2ccc(C(=O)N3CCC(C(=O)N[C@H](c4cccc(F)c4)C4CC4)(c4ccc(F)cc4)CC3)cc2)no1 [Example 197, 4-(4-Fluoro-phenyl)-1-[4-(5-methyl-[1,2,4]oxadiazol-3-yl)-benzoyl]-piperidine-4-carboxylic acid [(S)-cyclopropyl-(3-fluoro-phenyl)-methyl]-amide] |
| 0.0215 | O=C(c1ccc(N2CCCCC2=O)cc1)N1CCC(C(=O)N[C@H](c2cccc(F)c2)C2CC2)(c2ccc(F)cc2)CC1 [Example 198, 4-(4-Fluoro-phenyl)-1-[4-(2-oxo-piperidine-1-yl)-benzoyl]-piperidine-4-carboxylic acid [(S)-cyclopropyl-(3-fluoro-phenyl)-methyl]-amide] |
| 0.0051 | O=C(N1CCN(c2ccc(F)cc2)CC1)N1CCC(C(=O)N[C@H](c2cccc(F)c2)C2CC2)(c2ccc(F)cc2)CC1 [Example 199, 4-(4-Fluoro-phenyl)-1-[4-(4-fluoro-phenyl)-piperazine-1-carbonyl]-piperidine-4-carboxylic acid [(S)-cyclopropyl-(3-fluoro-phenyl)-methyl]-amide] |
| 0.015 | Cc1noc(-c2ccc(C(=O)N3CCC(C(=O)NC(c4ccc(F)cc4)C(F)(F)F)(c4ccc(F)cc4)CC3)cc2)n1 (stereo not drawn) [Example 200, 4-(4-Fluoro-phenyl)-1-[4-(3-methyl-[1,2,4]oxadiazol-5-yl)-benzoyl]-piperidine-4-carboxylic acid [2,2,2-trifluoro-1-(4-fluoro-phenyl)-ethyl]-amide] |
| 0.0087 | C[C@H](NC(=O)C1(c2ccccc2)CCN(C(=O)N2CCN(c3ccc(F)cc3)CC2)CC1)c1ccc(F)cc1 [Example 203, 1-[4-(4-Fluoro-phenyl)-piperazine-1-carbonyl]-4-phenyl-piperidine-4-carboxylic acid [(S)-1-(4-fluoro-phenyl)-ethyl]-amide] |
| 0.0792 | C[C@H](NC(=O)C1(c2ccccc2)CCN(C(=O)N2CCC(c3ccccc3)CC2)CC1)c1ccccc1 [Example 204, 4-Phenyl-1-(4-phenyl-piperidine-1-carbonyl)-piperidine-4-carboxylic acid ((S)-1-phenyl-ethyl)-amide] |
| 0.0798 | C[C@H](NC(=O)C1(c2ccccc2)CCN(C(=O)N2CCN(c3ccc(Cl)cn3)CC2)CC1)c1ccccc1 [Example 206, 1-[4-(5-Chloro-pyridin-2-yl)-piperazine-1-carbonyl]-4-phenyl-piperidine-4-carboxylic acid ((S)-1-phenyl-ethyl)-amide] |

More lines, now with the values behind:

| Structure (SMILES) | Ki [µM] |
| --- | --- |
| CC(C)C(NC(=O)C1(c2ccc(F)cc2)CCN(C(=O)c2ccc(N3CCCCC3=O)cc2)CC1)c1ccc(F)cc1 (stereo not drawn) [Example 171, 4-(4-Fluoro-phenyl)-1-[4-(2-oxo-piperidin-1-yl)-benzoyl]-piperidine-4-carboxylic acid [1-(4-fluoro-phenyl)-2-methyl-propyl]-amide] | 0.054 |
| C[C@H](NC(=O)C1(c2ccc(F)cc2)CCN(C(=O)c2ccc(N3CCCCC3=O)cc2)CC1)c1cccc(F)c1 [Example 173, 4-(4-Fluoro-phenyl)-1-[4-(2-oxo-piperidin-1-yl)-benzoyl]-piperidine-4-carboxylic acid [(S)-1-(3-fluoro-phenyl)-ethyl]-amide] | 0.043 |
| O=C(N1CCN(c2ccc(F)cc2)CC1)N1CCC(C(=O)NC2(c3ccc(F)cc3)CC2)(c2ccc(F)cc2)CC1 [Example 174] | 0.024 |
| CC(C)C(NC(=O)C1(c2ccc(F)cc2)CCN(C(=O)N2CCN(c3ccc(F)cc3)CC2)CC1)c1ccc(F)cc1 (stereo not drawn) [Example 175, 4-(4-Fluoro-phenyl)-1-[4-(4-fluoro-phenyl)-piperazine-1-carbonyl]-piperidine-4-carboxylic acid [1-(4-fluoro-phenyl)-2-methyl-propyl]-amide] | 0.048 |
| O=C(N1CCN(c2ccc(F)cc2)CC1)N1CCC(C(=O)NC(c2ccc(F)cc2)C(F)(F)F)(c2ccc(F)cc2)CC1 (stereo not drawn) [Example 176, 4-(4-Fluoro-phenyl)-1-[4-(4-fluoro-phenyl)-piperazine-1-carbonyl]-piperidine-4-carboxylic acid [2,2,2-trifluoro-1-(4-fluoro-phenyl)-ethyl]-amide] | 0.077 |
| C[C@H](NC(=O)C1(c2ccc(F)cc2)CCN(C(=O)N2CCN(c3ccc(F)cc3)CC2)CC1)c1cccc(F)c1 [Example 178, 4-(4-Fluoro-phenyl)-1-[4-(4-fluoro-phenyl)-piperazine-1-carbonyl]-piperidine-4-carboxylic acid [(S)-1-(3-fluoro-phenyl)-ethyl]-amide] | 0.019 |
| C[C@H](NC(=O)C1(c2ccc(F)cc2)CCN(C(=O)N2CCN(c3ccc(F)cc3)CC2)CC1)c1ccc(F)cc1 [Example 179, 4-(4-Fluoro-phenyl)-1-[4-(fluoro-phenyl)-piperazine-1-carbonyl]-piperidine-4-carboxylic acid [(S)-1-(4-fluoro-phenyl)-ethyl]-amide] | 0.018 |
| CC(C)N(NC(=O)C1(c2ccc(F)cc2)CCN(C(=O)c2ccc(-c3ccc(F)cc3)cc2)CC1)c1ccc(F)cc1 [Example 185, 1-(4′-Fluoro-biphenyl-4-carbonyl)-4-(4-fluoro-phenyl)-piperidine-4-carboxylic acid N′-(4-fluoro-phenyl)-N′-ispropyl-hydrazide] | 0.0636 |
| Cc1ccc(NNC(=O)C2(c3ccc(F)cc3)CCN(C(=O)c3ccc(-c4ccc(F)cc4)cc3)CC2)cc1 [Example 187, 1-(4′-Fluoro-biphenyl-4-carbonyl)-4-(4-fluoro-phenyl)-piperidine-4-carboxylic acid N′-p-tolyl-hydrazide] | 0.0767 |

— patent publication US8324250B2 (Hoffmann-La Roche Inc., priority 2009, dated 2012)
